Measured values taken from publication PMC6696179, “Structural Optimization and Structure–Activity Relationship of 4-Thiazolidinone Derivatives as Novel Inhibitors of Human Dihydroorotate Dehydrogenase” (Molecules, 2019).

How the values were obtained:
hDHODH = molecular target: T1, hDHODH (Homo sapiens, UniProt Q02127); test: hDHODH enzyme inhibition assay (DCIP/UQ0, dihydroorotate-initiated); type: biochemical; conditions: for inhibition at 10 µM: compound at 10 µM, 10 nM purified hDHODH; for IC50: three independent tests, determined if inhibition at 10 μM was greater than 50%;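 on all read-outs here: recombinant hDHODH (Met30–Arg396) in HEPES pH 8.0 buffer with KCl and Triton X-100, reaction started by 500 µM dihydroorotate, inhibition from rate with inhibitor relative to uninhibited rate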
T1 construct: The plasmid pET-19b–hDHODH (Met30-Arg396) was transformed; inferred from the pET-19b vector and from purification on a chelating column with imidazole elution) (N); made in house; host or cells: E. coli BL21 (DE3)
T1 sequence (Q02127 29-395 limits assumed): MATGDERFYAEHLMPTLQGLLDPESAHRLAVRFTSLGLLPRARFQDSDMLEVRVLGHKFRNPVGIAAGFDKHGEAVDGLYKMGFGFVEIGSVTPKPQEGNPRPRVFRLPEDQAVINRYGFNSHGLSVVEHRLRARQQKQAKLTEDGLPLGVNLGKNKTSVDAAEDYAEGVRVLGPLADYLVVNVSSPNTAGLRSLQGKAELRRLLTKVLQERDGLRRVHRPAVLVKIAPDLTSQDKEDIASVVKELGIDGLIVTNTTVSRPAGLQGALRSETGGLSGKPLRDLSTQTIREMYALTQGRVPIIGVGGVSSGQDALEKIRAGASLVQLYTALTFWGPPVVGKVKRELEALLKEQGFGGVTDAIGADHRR
Protocol: The purified hDHODH was diluted into a final concentration of 10 nM with the assay buffer contained 50 mM HEPES pH 8.0, 150 mM KCl, 0.1% Triton X-100. […] The dihydroorotate was added to a final concentration of 500 μM to initiate the reaction. […] Inhibition rate was calculated from (1-Vi/V0) × 100. For the determination of the IC50 values, eight to nine different concentrations were applied. Each inhibitor concentration point was tested in triplicate. IC50 values were calculated using the sigmoidal fitting option of the program Origin 8.0.

Row | melting point [°C] | inhibition at 10 µM (hDHODH) [%] | IC50 (hDHODH) [µM] | Structure (SMILES)
1 | 217.3 to 218.1 | 36.8 | > 10 | COC(=O)/C(C#N)=C1\SCC(=O)N1c1ccc(C(=O)NCc2ccccc2C(=O)O)cc1 [Compound 42, (Z)-2-((4-(2-(1-cyano-2-methoxy-2-oxoethylidene)-4-oxothiazolidin-3-yl)benzamido)methyl)-benzoic acid]
2 | 205.7 to 206.6 | 44 | > 10 | COC(=O)/C(C#N)=C1\SCC(=O)N1c1ccc(C(=O)NCc2cccc(C(=O)O)c2)cc1 [Compound 43, (Z)-3-((4-(2-(1-cyano-2-methoxy-2-oxoethylidene)-4-oxothiazolidin-3-yl)benzamido)methyl) benzoic acid]
3 | 328.1 to 328.9 | 30.3 | > 10 | COC(=O)/C(C#N)=C1\SCC(=O)N1c1ccc(C(=O)Nc2ccc(C(C)(C)C)c(C(=O)O)c2)cc1 [Compound 44, (Z)-2-(tert-butyl)-5-(4-(2-(1-cyano-2-methoxy-2-oxoethylidene)-4-oxothiazolidin-3-yl)benzamido)benzoic acid]
4 | 275 to 275.8 | 42.2 | > 10 | COC(=O)/C(C#N)=C1\SCC(=O)N1c1ccc(C(=O)Nc2ccc3c(C(C)=O)cccc3c2)cc1 [Compound 45, Methyl (Z)-2-(3-(4-((5-acetylnaphthalen-2-yl)carbamoyl)phenyl)-4-oxothiazolidin-2-ylidene)-2-cyanoacetate]
